The results in this text go back to PubChem BioAssay AID180 (DTP/NCI, 2004).

Several values for one entry are separate records, joined by “and”; a condition that tells them apart may be missing. Identical values can stand only once.

This test relates to BDF1 mice, Adenocarcinoma 755 s.c., tumor weight T/C. Put plainly: NCI In Vivo Anticancer Drug Screen. Data for tumor model Adenocarcinoma 755 (subcutaneous) in B6D2F1 (BDF1) mice. Conditions: endpoint: mean tumor weight, higher = larger tumour. In outline:
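Tumor-bearing mice receive test compound while controls get vehicle alone. Antitumor effect is scored from survival or tumor dimensions as a T/C quotient.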

[1] abbreviates: dose: 31.0 mg/kg/injection, schedule: Q01DX011 (ip), vehicle: methylcellulose (MC).
[2] abbreviates: dose: 62.0 mg/kg/injection, schedule: Q01DX011 (ip), vehicle: methylcellulose (MC).
Where [3] appears, read: dose: 125.0 mg/kg/injection, schedule: Q01DX011 (ip), vehicle: methylcellulose (MC).
Where [4] appears, read: dose: 250.0 mg/kg/injection, schedule: Q01DX011 (ip), vehicle: methylcellulose (MC).
Where [5] appears, read: dose: 15.0 mg/kg/injection, schedule: Q01DX011 (ip), vehicle: methylcellulose (MC).
Setting [6] is: dose: 63.0 mg/kg/injection, schedule: Q01DX011 (ip), vehicle: carboxymethylcellulose (CMC).

The term T/C denotes the result in the treated group divided by that in the control group, in per cent. As for `CCc1c(Cl)nc(N)nc1Nc1ccc(Br)cc1`, the T/C runs as follows: under setting [1], 118 % of control; under setting [2], 105 % of control; under setting [3], 106 % of control; under setting [4], 116 % of control.
As for `N#[N+]c1nc2ncnc(N)c2[nH]1`, the T/C by setting is: (dose: 12.5 mg/kg/injection, schedule: Q01DX011 (ip), vehicle: saline) 101 % of control; (dose: 25.0 mg/kg/injection, schedule: Q01DX011 (ip), vehicle: saline) 70 % of control.
As for `COC(=O)c1nc(-c2ccc3c(n2)C(=O)C(N)=C(OC)C3=O)c(N)c(-c2ccc(OC)c(OC)c2O)c1C`, the T/C is 42 % of control (dose: 0.31 mg/kg/injection, schedule: Q01DX011 (ip), vehicle: other); 14 % of control (dose: 0.63 mg/kg/injection, schedule: Q01DX011 (ip), vehicle: other); 1 % of control (dose: 1.25 mg/kg/injection, schedule: Q01DX011 (ip), vehicle: other); 40 % of control (dose: 6.0 mg/kg/injection, schedule: Q01DX006 (ip), vehicle: water); 7 % of control (dose: 12.5 mg/kg/injection, schedule: Q01DX006 (ip), vehicle: water).
Turning to `Nc1nc(S(N)(=O)=O)nc2nc[nH]c12`, the T/C is, setting by setting: (dose: 25.0 mg/kg/injection, schedule: Q01DX011 (ip), vehicle: carboxymethylcellulose (CMC)) 57 % of control; (dose: 75.0 mg/kg/injection, schedule: Q01DX011 (ip), vehicle: carboxymethylcellulose (CMC)) 82 % of control; (dose: 225.0 mg/kg/injection, schedule: Q01DX011 (ip), vehicle: carboxymethylcellulose (CMC)) 72 % of control.
Consider `Nc1nc(Cl)c2[nH]cnc2n1`, for which the T/C is, setting by setting: under setting [1], 60 % of control; under setting [2], 13 % of control; under setting [3], 4 % of control.
Turning to `Clc1nc(Cl)c2ncn(C3CCCO3)c2n1` (stereo not given), the T/C (dose: 33.0 mg/kg/injection, schedule: Q01DX011 (ip), vehicle: methylcellulose (MC)) was 65 % of control.
As for `CC1CN1C(=O)c1cc(C(=O)N2CC2C)cc(C(=O)N2CC2C)c1` (stereo not given), the T/C runs as follows: under setting [5], 69 % of control; (dose: 30.0 mg/kg/injection, schedule: Q01DX011 (ip), vehicle: methylcellulose (MC)) 57 % of control and 64 % of control.
Consider `Cc1nc(Cl)c(C#N)c(C(F)(F)F)c1N`, for which, where the note is “dose: 100.0 mg/kg/injection, schedule: Q01DX011 (ip), vehicle: carboxymethylcellulose (CMC)”, the T/C is 153 % of control.
As for `Cc1cn(C2CCCCC2)c(=O)n(-c2ccccc2)c1=O`, the T/C is 108 % of control under setting [5]; 91 % of control under setting [1]; 93 % of control under setting [2]; 96 % of control under setting [3]; 88 % of control under setting [4].
For the compound `CCCCSc1ncnc2c1ncn2C1CCCCO1` (stereo not given), the T/C runs as follows: (dose: 9.2 mg/kg/injection, schedule: Q01DX011 (ip), vehicle: carboxymethylcellulose (CMC)) 78 % of control; (dose: 14.0 mg/kg/injection, schedule: Q01DX011 (ip), vehicle: carboxymethylcellulose (CMC)) 58 % of control; (dose: 21.0 mg/kg/injection, schedule: Q01DX011 (ip), vehicle: carboxymethylcellulose (CMC)) 35 % of control; (dose: 31.0 mg/kg/injection, schedule: Q01DX011 (ip), vehicle: carboxymethylcellulose (CMC)) 17 % of control; (dose: 47.0 mg/kg/injection, schedule: Q01DX011 (ip), vehicle: carboxymethylcellulose (CMC)) 21 % of control; under setting [6], 11 % of control. Moreover, the T/C (dose: 94.0 mg/kg/injection, schedule: Q01DX011 (ip), vehicle: carboxymethylcellulose (CMC)) was 8 % of control; the T/C (dose: 125.0 mg/kg/injection, schedule: Q01DX011 (ip), vehicle: carboxymethylcellulose (CMC)) was 9 % of control; the T/C (dose: 175.0 mg/kg/injection, schedule: Q01DX011 (ip), vehicle: carboxymethylcellulose (CMC)) is 12 % of control; the T/C (dose: 188.0 mg/kg/injection, schedule: Q01DX011 (ip), vehicle: carboxymethylcellulose (CMC)) was 2 % of control; the T/C (dose: 262.5 mg/kg/injection, schedule: Q01DX011 (ip), vehicle: carboxymethylcellulose (CMC)) was 14 % of control.
Turning to `Cc1cnc(SCc2ccc(Cl)cc2)nc1Nc1ccc(Cl)cc1Cl`, the T/C was 97 % of control under setting [1], 69 % of control under setting [2], 65 % of control under setting [3] and 65 % of control under setting [4].
On to `Cc1cnc(SCc2ccccc2)nc1N(C)C`, for which the T/C runs as follows: under setting [5], 57 % of control; under setting [2], 60 % of control; under setting [3], 65 % of control; under setting [4], 50 % of control.
In the case of `Cn1cnc2c(SCc3ccccc3)ncnc21`, the T/C under setting [6] was 3 % of control; the T/C (dose: 126.0 mg/kg/injection, schedule: Q01DX011 (ip), vehicle: carboxymethylcellulose (CMC)) is 1 % of control; the T/C (dose: 252.0 mg/kg/injection, schedule: Q01DX011 (ip), vehicle: carboxymethylcellulose (CMC)) was 1 % of control.
Take `C/C=C1\CN(C)[C@H]2Cc3c([nH]c4ccccc34)[C@@H](c3cc4[nH]c5c(c4cc3OC)CCN3C[C@H]4C[C@H](CC)[C@H]3[C@@]5(C(=O)OC)C4)C[C@H]1C2C(=O)OC` (stereo not given in full): the T/C was 58 % of control (dose: 30.0 mg/kg/injection, schedule: Q01DX011 (ip), vehicle: water); 57 % of control (dose: 35.0 mg/kg/injection, schedule: Q01DX006 (ip), vehicle: water); 41 % of control (dose: 45.0 mg/kg/injection, schedule: Q01DX011 (ip), vehicle: water); 61 % of control and 69 % of control (dose: 50.0 mg/kg/injection, schedule: Q01DX006 (ip), vehicle: water); 51 % of control (dose: 70.0 mg/kg/injection, schedule: Q01DX006 (ip), vehicle: water); 54 % of control (dose: 80.0 mg/kg/injection, schedule: Q01DX006 (ip), vehicle: water).
In the case of `Cc1ccc(/C=N/Nc2nc3c([nH]2)c(=O)n(C)c(=O)n3C)cc1`, the T/C runs as follows: (dose: 30.0 mg/kg/injection, schedule: Q01DX011 (ip), vehicle: carboxymethylcellulose (CMC)) 95 % of control; (dose: 60.0 mg/kg/injection, schedule: Q01DX011 (ip), vehicle: carboxymethylcellulose (CMC)) 115 % of control; (dose: 120.0 mg/kg/injection, schedule: Q01DX011 (ip), vehicle: carboxymethylcellulose (CMC)) 112 % of control; (dose: 240.0 mg/kg/injection, schedule: Q01DX011 (ip), vehicle: carboxymethylcellulose (CMC)) 81 % of control.
In the case of `CC(=O)[C@H]1CC[C@H]2[C@@H]3CCC4=CC(=O)[C@H](C)C[C@]4(C)[C@@]3(F)C(=O)C[C@]12C`, the T/C runs as follows: (dose: 1.5 mg/kg/injection, schedule: Q01DX011 (sc), vehicle: steriod suspending solution) 120 % of control; (dose: 3.12 mg/kg/injection, schedule: Q01DX011 (sc), vehicle: steriod suspending solution) 77 % of control; (dose: 6.0 mg/kg/injection, schedule: Q01DX011 (sc), vehicle: steriod suspending solution) 69 % of control; (dose: 6.25 mg/kg/injection, schedule: Q01DX011 (sc), vehicle: steriod suspending solution) 79 % of control; (dose: 12.0 mg/kg/injection, schedule: Q01DX011 (sc), vehicle: steriod suspending solution) 36 % of control and 56 % of control; (dose: 12.5 mg/kg/injection, schedule: Q01DX011 (sc), vehicle: steriod suspending solution) 79 % of control. The T/C is 36 % of control and 47 % of control and 58 % of control (dose: 25.0 mg/kg/injection, schedule: Q01DX011 (sc), vehicle: steriod suspending solution); 33 % of control and 39 % of control (dose: 50.0 mg/kg/injection, schedule: Q01DX011 (sc), vehicle: steriod suspending solution); 21 % of control (dose: 51.0 mg/kg/injection, schedule: Q01DX011 (sc), vehicle: steriod suspending solution); 21 % of control (dose: 75.0 mg/kg/injection, schedule: Q01DX011 (sc), vehicle: steriod suspending solution); 9 % of control and 16 % of control and 22 % of control (dose: 100.0 mg/kg/injection, schedule: Q01DX011 (sc), vehicle: steriod suspending solution); 6 % of control and 14 % of control (dose: 200.0 mg/kg/injection, schedule: Q01DX011 (sc), vehicle: steriod suspending solution).
On to `CC(=O)OCC1OC(n2cnc3c(=O)[nH]c(=O)[nH]c32)C(OC(C)=O)C1OC(C)=O` (stereo not given), for which the T/C runs as follows: (dose: 30.0 mg/kg/injection, schedule: Q01DX011 (ip), vehicle: saline) 101 % of control; (dose: 60.0 mg/kg/injection, schedule: Q01DX011 (ip), vehicle: saline) 103 % of control; (dose: 120.0 mg/kg/injection, schedule: Q01DX011 (ip), vehicle: saline) 86 % of control; (dose: 240.0 mg/kg/injection, schedule: Q01DX011 (ip), vehicle: saline) 112 % of control.
As to `O=C(O)c1ccc(-c2ccccc2)cc1`, the T/C (dose: 200.0 mg/kg/injection, schedule: Q01DX011 (ip), vehicle: carboxymethylcellulose (CMC)) was 80 % of control.
